Test systems include HCC 2998; SK-MEL-28; M14; A549; MDA-MB-231; OVCAR-5; RPMI-8226; PC-3; A498; MOLT-4; MDA-MB-435; UACC-62; OVCAR-3; HOP-62; MDA-N; UACC-257; SF-268; MCF7; K562; IGROV-1.
Common to all, as to assay: DTP human tumour cell line panel, 48 h

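How tested: cells in 96-well plates exposed to compound for 48 hours at five concentrations. GI50: concentration for 50% inhibition of growth.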 Activity calls are given as the source filed them. Cut-off read from the data, not from the text of the source: active = GI50 up to about 1.1 µM and inactive = higher.

Data on ten compounds can be found in ChEMBL document CHEMBL1201862, “PubChem BioAssay data set” (2004).

Broadly, the GI50 is the concentration at which growth is held to half of that of the control.

Regarding `CSc1nc(=S)[nH]c2c1c(C)nn2-c1ccccc1`, the GI50 in the assay on HCC 2998 is 30.6 µM (inactive); in the assay with SK-MEL-28, 38.8 µM (inactive); in the assay on M14, 40.5 µM (inactive); in the assay with A549 it was 31.3 µM (inactive); in the assay on MDA-MB-231 it was 22.2 µM (inactive); in the assay with OVCAR-5 it was 51.1 µM (inactive). For the same compound, the GI50 with RPMI-8226 is 6.73 µM (inactive); with PC-3, 25.7 µM (inactive); with A498, 30.5 µM (inactive); in the assay on MOLT-4, 14.2 µM (inactive); in the assay on MDA-MB-435, 40.5 µM (inactive); in the assay with UACC-62 it was 14.5 µM (inactive). In addition, the GI50 is 35.5 µM (inactive) in the assay with OVCAR-3; 41.7 µM (inactive) with HOP-62; 24.8 µM (inactive) in the assay with MDA-N; 20.5 µM (inactive) in the assay on UACC-257; 22.1 µM (inactive) in the assay with SF-268; 17.8 µM (inactive) with MCF7. The GI50 in the assay on K562 is 16.6 µM (inactive).

On to `C[N+](C)(C)c1nc(N)nc2c1ncn2C1OC(CO)C(O)C1O` (stereo not given), for which the GI50 in the assay on HCC 2998, in the assay with SK-MEL-28, with M14, in the assay with A549, in the assay with MDA-MB-231 and in the assay with OVCAR-5 was > 100 µM (inactive) in each case. Besides, the GI50 with RPMI-8226, with PC-3, with A498, in the assay with MOLT-4, in the assay with MDA-MB-435 and in the assay on UACC-62 was > 100 µM (inactive) each time. The GI50 in the assay with OVCAR-3, in the assay with HOP-62, with IGROV-1, in the assay on MDA-N, in the assay on UACC-257 and in the assay with SF-268 was > 100 µM (inactive) each time. Also, the GI50 with MCF7 and in the assay on K562 was > 100 µM (inactive) throughout.

`O=C(CN1C(=O)c2ccccc2C1=O)NC1(C(=O)O)CCCC1`: the GI50 with HCC 2998, in the assay with SK-MEL-28, in the assay with M14, in the assay on A549, with MDA-MB-231 and with OVCAR-5 was > 100 µM (inactive) in each case. Further, the GI50 with RPMI-8226, in the assay on PC-3, in the assay on A498, with MOLT-4, with MDA-MB-435 and in the assay with UACC-62 was > 100 µM (inactive) in each case. In addition, the GI50 in the assay on OVCAR-3, in the assay with HOP-62, in the assay on IGROV-1, in the assay with MDA-N, in the assay on UACC-257 and with SF-268 was > 100 µM (inactive) throughout. The GI50 in the assay on MCF7 and with K562 was > 100 µM (inactive) in each case.

As for `NCCNC(=S)S`, the GI50 in the assay on HCC 2998, with SK-MEL-28, in the assay with M14, in the assay with A549, with MDA-MB-231 and in the assay on OVCAR-5 was > 100 µM (inactive) each time. Moreover, the GI50 in the assay with RPMI-8226 is 24.9 µM (inactive); with PC-3, > 100 µM (inactive); with A498, > 100 µM (inactive); with MOLT-4, 34.9 µM (inactive); in the assay on MDA-MB-435 it was > 100 µM (inactive); in the assay on UACC-62, > 100 µM (inactive). In addition, the GI50 with OVCAR-3 is 52.7 µM (inactive); with HOP-62 it was > 100 µM (inactive); with IGROV-1, > 100 µM (inactive); with MDA-N, > 100 µM (inactive); in the assay with UACC-257 it was > 100 µM (inactive); with SF-268, 4.9 µM (inactive). The GI50 in the assay on MCF7 is > 100 µM (inactive); in the assay on K562 it was 36.6 µM (inactive).

As to `CC(C)C(Sc1nc(N)nc2nc[nH]c12)C(=O)O` (stereo not given), the GI50 with HCC 2998, in the assay on SK-MEL-28, in the assay on M14, in the assay on A549, in the assay with MDA-MB-231 and in the assay with OVCAR-5 was > 100 µM (inactive) in each case. Further, the GI50 in the assay on RPMI-8226, in the assay with PC-3, with A498, with MDA-MB-435, with UACC-62 and in the assay on OVCAR-3 was > 100 µM (inactive) in each case. Besides, the GI50 in the assay with HOP-62, in the assay on IGROV-1, in the assay with MDA-N, in the assay with UACC-257, with SF-268 and with MCF7 was > 100 µM (inactive) each time. In the assay with K562, the GI50 is > 100 µM (inactive).

For `O=[N+]([O-])/C(Cl)=C/C(=C1/Nc2ccccc2O1)[N+](=O)[O-]`, the GI50 with HCC 2998 is 14.6 µM (inactive); with SK-MEL-28, 19.5 µM (inactive); in the assay with M14 it was 19.8 µM (inactive); in the assay on A549 it was 34.8 µM (inactive); in the assay with MDA-MB-231, 30.1 µM (inactive); in the assay with RPMI-8226, 28.5 µM (inactive). In addition, the GI50 with PC-3 is 14.1 µM (inactive); with A498, 19 µM (inactive); with MOLT-4, 19.8 µM (inactive); with MDA-MB-435, 15.9 µM (inactive); with UACC-62, 23.4 µM (inactive); with OVCAR-3, 19.3 µM (inactive). The GI50 with HOP-62 is 33.7 µM (inactive); with IGROV-1, 33.1 µM (inactive); in the assay with MDA-N it was 18.5 µM (inactive); with UACC-257 it was 5.79 µM (inactive); with SF-268, 16.3 µM (inactive); in the assay on MCF7 it was 29.6 µM (inactive). Besides, the GI50 in the assay on K562 is 32.7 µM (inactive).

Take `Cc1ccc2oc(=O)c(C(=O)Nc3nc(C45CC6CC(CC(C6)C4)C5)cs3)cc2c1`: the GI50 in the assay on HCC 2998, in the assay on SK-MEL-28, with A549, in the assay on MDA-MB-231, with OVCAR-5 and with RPMI-8226 was > 100 µM (inactive) each time. Moreover, the GI50 with PC-3, in the assay on A498, in the assay with MOLT-4, in the assay on MDA-MB-435, with OVCAR-3 and with HOP-62 was > 100 µM (inactive) in each case. Further, the GI50 in the assay on IGROV-1, in the assay on MDA-N, in the assay on UACC-257, in the assay with SF-268, in the assay with MCF7 and with K562 was > 100 µM (inactive) each time.

Regarding `C#CCOCn1ccc(=O)[nH]c1=O`, the GI50 in the assay with HCC 2998, in the assay with SK-MEL-28, with M14, in the assay on A549, with MDA-MB-231 and in the assay with OVCAR-5 was > 100 µM (inactive) throughout. Further, the GI50 in the assay with RPMI-8226, in the assay with PC-3, in the assay on A498, in the assay on MOLT-4, in the assay with MDA-MB-435 and with UACC-62 was > 100 µM (inactive) in each case. For the same compound, the GI50 in the assay with HOP-62, with IGROV-1, in the assay with MDA-N, in the assay on UACC-257, in the assay with SF-268 and in the assay with MCF7 was > 100 µM (inactive) throughout. The GI50 in the assay with K562 is > 100 µM (inactive).

`COc1cccc(-c2cc(O)c3c(C)ccnc3n2)c1`: the GI50 in the assay on HCC 2998 was 0.0352 µM (active); in the assay on M14, 0.0239 µM (active); in the assay with A549 it was 0.0518 µM (active); in the assay on MDA-MB-231, 0.279 µM (active); in the assay with OVCAR-5 it was 0.0748 µM (active); in the assay on RPMI-8226 it was 0.0327 µM (active). Besides, the GI50 with PC-3 is 0.0223 µM (active); in the assay with A498, 0.0344 µM (active); with MOLT-4, 0.0407 µM (active); in the assay with MDA-MB-435, < 0.01 µM (active); in the assay with UACC-62, 0.0267 µM (active); in the assay on OVCAR-3, 0.0186 µM (active). Further, the GI50 in the assay with HOP-62 was 0.0463 µM (active); with IGROV-1 it was 0.0493 µM (active); with MDA-N it was < 0.01 µM (active); in the assay on SF-268, 0.0439 µM (active); in the assay on MCF7, 0.0741 µM (active); with K562 it was < 0.0113 µM (active).

With `COC(=O)c1onc(C2OC(C)(C)OC2C(O)COC(c2ccccc2)(c2ccccc2)c2ccccc2)c1C(=O)OC` (stereo not given), the GI50 was > 100 µM (inactive) with HCC 2998; > 100 µM (inactive) in the assay with SK-MEL-28; > 100 µM (inactive) in the assay with M14; > 100 µM (inactive) in the assay on A549; 71.8 µM (inactive) with MDA-MB-231; > 100 µM (inactive) in the assay on OVCAR-5. Also, the GI50 was > 100 µM (inactive) with RPMI-8226; 44.7 µM (inactive) in the assay on PC-3; > 100 µM (inactive) in the assay on A498; 29.4 µM (inactive) in the assay on MOLT-4; 89.5 µM (inactive) with MDA-MB-435; 43.6 µM (inactive) in the assay with UACC-62. Besides, the GI50 with OVCAR-3 was 87.5 µM (inactive); in the assay on HOP-62, > 100 µM (inactive); in the assay on MDA-N it was > 100 µM (inactive); in the assay with SF-268, > 100 µM (inactive); in the assay with MCF7, > 100 µM (inactive); with K562 it was 72.8 µM (inactive).
